# Results reported in patent US12433861B2, “Compositions and methods for treating reperfusion injury or hemorrhage after recanalization therapy” (GNT Pharma Co., Ltd., priority 2020, dated 2025).
# “Also recorded” adds a separate entry of the source.
# What was measured:
# [1] = tested on: ischemic stroke patients; conditions: cited from earlier work
# [2] = tested on: adult rats; assay: Abnormal behavior in adult rats after single dose; conditions: for % of rats showing abnormal behavior: Abnormal body position lying on side / % of rats showing abnormal behavior: Ataxia / % of rats showing abnormal behavior: Clenched paws / % of rats showing abnormal behavior: Decreased activity / % of rats showing abnormal behavior: Increased salivation / % of rats showing abnormal behavior: Repetitive jaw chewing / Number of rats showing abnormal behavior: Abnormal body position lying on side / Number of rats showing abnormal behavior: Ataxia / Number of rats showing abnormal behavior: Clenched paws / Number of rats showing abnormal behavior: Decreased activity / Number of rats showing abnormal behavior: Increased salivation / Number of rats showing abnormal behavior: Repetitive jaw chewing: 8 rats
# [3] = tested on: healthy volunteers; conditions: cited from earlier work
# [4] = tested on: acute ischemic stroke patients; conditions: cited from earlier work
# [5] = ischemic stroke patients, selfotel (n = 281)
compound,measurement,setting,value
O=C(O)[C@@H]1C[C@H](CP(=O)(O)O)CCN1 (racemic) [selfotel],adverse effects in stroke patients,[1]; 1 mg/kg,"showed hallucinations, paranoia, agitation, confusion, and delirium"
same,% of subjects showing abnormal behavior: Agitation,[1]; [5],36%
same,% of subjects showing abnormal behavior: Confusion,[1]; [5],16%
same,% of subjects showing abnormal behavior: Hallucination,[1]; [5],21%
same,% of subjects showing abnormal behavior: Stupor,[1]; [5],4.3%
same,Number of subjects showing abnormal behavior: Agitation,[1]; [5],101
same,Number of subjects showing abnormal behavior: Confusion,[1]; [5],46
same,Number of subjects showing abnormal behavior: Hallucination,[1]; [5],59
same,Number of subjects showing abnormal behavior: Stupor,[1]; [5],12
same,Subjects showing abnormal behavior: Delirium (yes/no),[1]; [5],yes
same,Subjects showing abnormal behavior: Paranoia (yes/no),[1]; [5],yes
same,psychotic symptoms,[1]; some of 281 ischemic stroke patients,"revealed psychotic symptoms such as hallucination, paranoia, and delirium"
C[C@]12N[C@H](Cc3ccccc31)c1ccccc12 [MK-801],% of rats showing abnormal behavior: Abnormal body position lying on side,"[2]; 1 mg/kg (IP), female",25%
same,% of rats showing abnormal behavior: Ataxia,"[2]; 1 mg/kg (IP), female",75%
same,% of rats showing abnormal behavior: Clenched paws,"[2]; 1 mg/kg (IP), female",88%
same,% of rats showing abnormal behavior: Decreased activity,"[2]; 1 mg/kg (IP), female",100%
same,% of rats showing abnormal behavior: Increased salivation,"[2]; 1 mg/kg (IP), female",25%
same,% of rats showing abnormal behavior: Repetitive jaw chewing,"[2]; 1 mg/kg (IP), female",50%
same,Number of rats showing abnormal behavior: Abnormal body position lying on side,"[2]; 1 mg/kg (IP), female",2
same,Number of rats showing abnormal behavior: Ataxia,"[2]; 1 mg/kg (IP), female",6
same,Number of rats showing abnormal behavior: Clenched paws,"[2]; 1 mg/kg (IP), female",7
same,Number of rats showing abnormal behavior: Decreased activity,"[2]; 1 mg/kg (IP), female",8
same,Number of rats showing abnormal behavior: Increased salivation,"[2]; 1 mg/kg (IP), female",2
same,Number of rats showing abnormal behavior: Repetitive jaw chewing,"[2]; 1 mg/kg (IP), female",4
same,% of rats showing abnormal behavior: Abnormal body position lying on side,"[2]; 10 mg/kg (IP), male",13%
same,% of rats showing abnormal behavior: Ataxia,"[2]; 10 mg/kg (IP), male",38%
same,% of rats showing abnormal behavior: Clenched paws,"[2]; 10 mg/kg (IP), male",50%
same,% of rats showing abnormal behavior: Decreased activity,"[2]; 10 mg/kg (IP), male",100%
same,% of rats showing abnormal behavior: Increased salivation,"[2]; 10 mg/kg (IP), male",50%
same,% of rats showing abnormal behavior: Repetitive jaw chewing,"[2]; 10 mg/kg (IP), male",38%
same,Number of rats showing abnormal behavior: Abnormal body position lying on side,"[2]; 10 mg/kg (IP), male",1
same,Number of rats showing abnormal behavior: Ataxia,"[2]; 10 mg/kg (IP), male",3
same,Number of rats showing abnormal behavior: Clenched paws,"[2]; 10 mg/kg (IP), male",5
same,Number of rats showing abnormal behavior: Decreased activity,"[2]; 10 mg/kg (IP), male",4
same,Number of rats showing abnormal behavior: Increased salivation,"[2]; 10 mg/kg (IP), male",5
same,Number of rats showing abnormal behavior: Repetitive jaw chewing,"[2]; 10 mg/kg (IP), male",3
same,abnormal behaviors,"[2]; male and female rats, 1 or 10 mg/kg (IP)",produced abnormal behaviors including ataxia and decreased activity
CCc1cccc(N(C)C(N)=Nc2cccc3ccccc23)c1 [aptiganel],Drug-induced side effect: Agitation,"[3]; Phase 1, 94 healthy volunteers",yes
same,Drug-induced side effect: Catatonia,"[3]; Phase 1, 94 healthy volunteers",yes
same,Drug-induced side effect: Hallucination,"[3]; Phase 1, 94 healthy volunteers",yes
same,Drug-induced side effect: Paranoia,"[3]; Phase 1, 94 healthy volunteers",yes
same,side effects / psychotic symptoms in healthy humans,[3]; healthy volunteers (phase 1 study for 94),"caused hallucinations, paranoia, catatonia, euphoria, disinhibition, and psychomotor retardation; also recorded: psychotic symptoms such as hallucinations, paranoia, and catatonia"
"rt-PA: recombinant tissue plasminogen activator, intravenous thrombolytic drug",increase of intracranial hemorrhagic complication,"[4]; intravenous administration, acute ischemic stroke",~6.4%
same,cerebral arterial recanalization,"[4]; intravenous, depending upon size and types of the occluded vessel",4-32%
